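These data come from cells grown in 96-well plates and exposed to compound for 48 hours at five concentrations. GI50 = concentration required for 50% inhibition of growth. At the TGI there is no net growth.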
Experiments:
Assay in all cases: DTP human tumour cell line panel, 48 h
A498 renal = system: A498 renal
DMS 273 small cell lung = system: DMS 273 small cell lung
HCT-116 colon = system: HCT-116 colon
OVCAR-8 ovarian = system: OVCAR-8 ovarian
RPMI-8226 leukemia = system: RPMI-8226 leukemia
SK-MEL-2 melanoma = system: SK-MEL-2 melanoma
SNB-19 CNS = system: SNB-19 CNS
XF 498 CNS = system: XF 498 CNS
DU-145 prostate = system: DU-145 prostate
M14 melanoma = system: M14 melanoma
MDA-MB-435 = system: MDA-MB-435

Compound | TGI (A498 renal) | TGI (DMS 273 small cell lung) | TGI (HCT-116 colon) | TGI (OVCAR-8 ovarian) | TGI (RPMI-8226 leukemia) | TGI (SK-MEL-2 melanoma) | TGI (SNB-19 CNS) | TGI (XF 498 CNS) | GI50 (A498 renal) | GI50 (DU-145 prostate) | TGI (DU-145 prostate) | GI50 (HCT-116 colon) | GI50 (M14 melanoma) | TGI (M14 melanoma) | GI50 (MDA-MB-435) | TGI (MDA-MB-435) | GI50 (OVCAR-8 ovarian) | GI50 (RPMI-8226 leukemia) | GI50 (SK-MEL-2 melanoma)
Nc1ncnc2c1ncn2C1CCC(CO)O1 (stereo not given) | > 100 µM | > 100 µM | > 100 µM | > 79.4 µM | > 100 µM | > 100 µM | > 100 µM | > 100 µM |  |  |  |  |  |  |  |  |  |  | 
CCN(CC)CCCC(Nc1c2ccc(Cl)cc2nc2ccc(OC)cc12)c1ccc(F)cc1 (stereo not given) | 21.4 µM |  | 3.48 µM | 10.4 µM | 5.36 µM | 4.35 µM |  |  | 7.37 µM | 3.23 µM | 10.4 µM | 1.84 µM | 1.88 µM | 3.58 µM | 1.73 µM | 3.2 µM | 3.27 µM | 2.18 µM | 2.1 µM
Cc1cccc2c(N)c3cccc(C(=O)NCCN(C)C)c3nc12 | 0.516 µM |  | 2.38 µM | 2.01 µM | 0.128 µM | 0.463 µM |  |  |  |  | 0.639 µM |  |  | 0.422 µM |  | 0.321 µM |  |  | 
COc1c2c(cc3c(CCc4ccccc4)cc(=O)oc13)CCC(C)(C)O2 |  | > 100 µM | > 100 µM | > 100 µM | > 100 µM | > 100 µM |  |  |  |  |  |  |  | > 100 µM |  |  |  |  | 
CC1=C[C@]2(CC(C)C3C(CC4(C)C5CCC6C(C)(C)C(=O)CC[C@@]67C[C@@]57CC[C@]34C)O2)OC1=O (stereo not given in full) | > 100 µM | 32.6 µM | > 100 µM | > 100 µM | > 100 µM | > 100 µM | 83.7 µM | 30 µM |  |  |  |  |  | > 100 µM |  |  |  |  | 
CCOP(=O)(OCC)C(Cc1ccc(OC)c(OC)c1)N=C(c1ccccc1)c1ccccc1 (stereo not given) | > 100 µM |  | > 100 µM | > 100 µM | 44.3 µM |  | > 100 µM |  |  |  | > 100 µM |  |  | > 100 µM |  | > 100 µM |  |  | 
CC(C)=CC(=O)OC1C2C(C)C(=O)OC2C(O)C(C)C2C=CC(=O)C21C (stereo not given) | 3.29 µM | 8.85 µM | 4.69 µM | 9.59 µM | 11.7 µM | 11.5 µM | 17.4 µM | 9.77 µM |  |  |  |  |  |  |  |  |  |  | 
CO/N=C1/c2sccc2[C@H](NC(=O)C(F)(F)F)[C@@H]1O | > 100 µM |  | > 100 µM | > 100 µM |  | > 100 µM |  |  |  |  | > 100 µM |  |  | > 100 µM |  | > 100 µM |  |  | 

Reference: PubChem BioAssay (NCI)
